Laboratory results: patent publication US20250235501A1, “Methods and Compositions for Treating or Preventing Neurological Injury or Neurological Disorders” (University of Connecticut, priority 2024, published 2025)

Assays:
NMDARs = target: T1, NMDARs (Mus musculus, UniProt P35436+Q01097); assay: Surface expression of NMDARs in brains of MCAO mice (WB); type: in vivo; conditions: 100 nmol/kg ip 15 mins before MCAO; 24 hrs after MCAO
T1 construct: from tissue; host or cells: mouse brain, membrane protein extract 24 h after MCAO or sham
Procedure: FIGS. 7D and 7E show the effects of TAT-EE3 on surface expression of NMDARs in WT and nM2KO mice 24 hrs after MCAO or sham procedure. TAT-SC and TAT-EE3 were ip administrated (100 nmol/kg) 15 mins before MCAO or sham procedure. FIG. 7D show the WB of surface expression of NMDARs from two representative samples/group. Pan-cadherin was used as loading control. FIG. 7E show the quantification of surface expression of NMDARs normalized to Pan-cadherin (ns, p>0.05; ***, p<0.001; ANOVA, Bonferroni's test; mean±SEM; n=4 mice/group).
(§1) Eight-to nine-week-old male mice (˜25 g) were subjected to right middle cerebral artery occlusion (MCAO) for 120 min followed by 24 hours of reperfusion. The genotype information was blinded to the surgeon who conduct the surgeries. […] Mouse body temperature was monitored by a rectal temperature probe and maintained at ˜ 37° C. with an automatic temperature-regulating heating pad connected to animal temperature controller (TCA T-2DF, Physitemp). Cerebral blood flow was monitored after occlusion as well as after reperfusion. […] Successful occlusion was confirmed by 85% reduction of cerebral blood flow monitored by Laser Doppler Flowmetry (LDF) with laser Doppler blood FlowMeter (Moor-VMS-LDF1, Moor Instrument, Dever, UK). […]

[1] = system: ERK and CREB activities (pERK1/2, pCREB); assay: ERK and CREB activities in brains of mice subjected to MCAO (WB); type: in vivo, mouse; conditions: WT mice; peptide ip 15 min before MCAO or sham
Procedure: FIGS. 7I-7K show the effects of TAT-EE3 and Trpm2 deletion on ERK and CREB activities in mice subjected to MCAO. […] TAT-EE3 or TAT-SC was ip administrated to WT mice 15 min before MCAO or sham surgeries. FIGS. 7J and 7K show the quantification of pERK1/2 and pCREB expressed in the brains after MCAO or sham procedure (***, p<0.001; ANOVA, Bonferroni's test; mean±SEM, n=4/group).
as §1
NP-40/Triton lysis buffer ([…], 1% Triton™ X-100, 150 mM NaCl, 1 mM EDTA, 50 mM Tris, pH=8.0) containing proteinase inhibitors and phosphatase inhibitors was used to lyse both cultured cells and frozen brain tissue. […] Protein concentration was measured using Pierce™ Rapid Gold BCA Protein Assay Kit. […]

T1 sequence (P35436 20-1464 limits assumed, other chains not shown): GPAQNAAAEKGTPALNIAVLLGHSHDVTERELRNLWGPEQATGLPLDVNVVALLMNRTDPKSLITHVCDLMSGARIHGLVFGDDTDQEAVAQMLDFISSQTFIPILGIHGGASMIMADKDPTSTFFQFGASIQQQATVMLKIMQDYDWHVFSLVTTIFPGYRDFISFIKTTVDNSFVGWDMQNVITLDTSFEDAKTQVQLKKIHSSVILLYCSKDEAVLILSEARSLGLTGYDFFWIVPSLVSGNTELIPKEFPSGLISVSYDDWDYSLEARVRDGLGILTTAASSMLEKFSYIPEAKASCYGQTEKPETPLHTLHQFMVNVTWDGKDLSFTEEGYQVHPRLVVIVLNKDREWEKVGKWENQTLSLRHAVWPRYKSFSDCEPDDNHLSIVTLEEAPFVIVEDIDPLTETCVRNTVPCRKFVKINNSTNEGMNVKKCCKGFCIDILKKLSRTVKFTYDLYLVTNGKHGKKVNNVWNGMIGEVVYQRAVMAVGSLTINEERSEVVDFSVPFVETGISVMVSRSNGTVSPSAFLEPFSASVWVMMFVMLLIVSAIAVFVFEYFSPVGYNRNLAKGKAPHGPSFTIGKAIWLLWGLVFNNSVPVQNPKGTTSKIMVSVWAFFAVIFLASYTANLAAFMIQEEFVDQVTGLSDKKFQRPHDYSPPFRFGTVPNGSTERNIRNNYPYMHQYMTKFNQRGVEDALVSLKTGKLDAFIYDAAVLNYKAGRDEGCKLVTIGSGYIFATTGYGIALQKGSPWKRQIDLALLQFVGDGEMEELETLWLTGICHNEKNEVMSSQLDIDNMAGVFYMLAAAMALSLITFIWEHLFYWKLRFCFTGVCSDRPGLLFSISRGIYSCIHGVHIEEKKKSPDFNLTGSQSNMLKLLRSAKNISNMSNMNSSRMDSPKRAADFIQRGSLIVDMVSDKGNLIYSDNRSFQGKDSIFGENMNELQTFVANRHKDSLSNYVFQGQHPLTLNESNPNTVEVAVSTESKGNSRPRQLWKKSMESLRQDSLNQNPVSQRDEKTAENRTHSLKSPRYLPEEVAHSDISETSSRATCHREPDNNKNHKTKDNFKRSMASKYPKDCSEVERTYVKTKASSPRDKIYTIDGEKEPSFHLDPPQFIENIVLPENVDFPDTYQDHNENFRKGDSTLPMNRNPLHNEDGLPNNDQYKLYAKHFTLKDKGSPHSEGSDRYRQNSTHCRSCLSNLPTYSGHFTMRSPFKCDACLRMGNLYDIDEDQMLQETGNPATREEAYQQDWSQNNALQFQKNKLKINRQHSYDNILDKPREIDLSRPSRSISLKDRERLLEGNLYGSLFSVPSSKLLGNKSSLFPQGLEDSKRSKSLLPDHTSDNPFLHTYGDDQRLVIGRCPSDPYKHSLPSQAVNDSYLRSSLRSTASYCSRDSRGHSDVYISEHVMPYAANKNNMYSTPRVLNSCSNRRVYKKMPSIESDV
T1 sequence (Q01097 27-1482, other chains not shown): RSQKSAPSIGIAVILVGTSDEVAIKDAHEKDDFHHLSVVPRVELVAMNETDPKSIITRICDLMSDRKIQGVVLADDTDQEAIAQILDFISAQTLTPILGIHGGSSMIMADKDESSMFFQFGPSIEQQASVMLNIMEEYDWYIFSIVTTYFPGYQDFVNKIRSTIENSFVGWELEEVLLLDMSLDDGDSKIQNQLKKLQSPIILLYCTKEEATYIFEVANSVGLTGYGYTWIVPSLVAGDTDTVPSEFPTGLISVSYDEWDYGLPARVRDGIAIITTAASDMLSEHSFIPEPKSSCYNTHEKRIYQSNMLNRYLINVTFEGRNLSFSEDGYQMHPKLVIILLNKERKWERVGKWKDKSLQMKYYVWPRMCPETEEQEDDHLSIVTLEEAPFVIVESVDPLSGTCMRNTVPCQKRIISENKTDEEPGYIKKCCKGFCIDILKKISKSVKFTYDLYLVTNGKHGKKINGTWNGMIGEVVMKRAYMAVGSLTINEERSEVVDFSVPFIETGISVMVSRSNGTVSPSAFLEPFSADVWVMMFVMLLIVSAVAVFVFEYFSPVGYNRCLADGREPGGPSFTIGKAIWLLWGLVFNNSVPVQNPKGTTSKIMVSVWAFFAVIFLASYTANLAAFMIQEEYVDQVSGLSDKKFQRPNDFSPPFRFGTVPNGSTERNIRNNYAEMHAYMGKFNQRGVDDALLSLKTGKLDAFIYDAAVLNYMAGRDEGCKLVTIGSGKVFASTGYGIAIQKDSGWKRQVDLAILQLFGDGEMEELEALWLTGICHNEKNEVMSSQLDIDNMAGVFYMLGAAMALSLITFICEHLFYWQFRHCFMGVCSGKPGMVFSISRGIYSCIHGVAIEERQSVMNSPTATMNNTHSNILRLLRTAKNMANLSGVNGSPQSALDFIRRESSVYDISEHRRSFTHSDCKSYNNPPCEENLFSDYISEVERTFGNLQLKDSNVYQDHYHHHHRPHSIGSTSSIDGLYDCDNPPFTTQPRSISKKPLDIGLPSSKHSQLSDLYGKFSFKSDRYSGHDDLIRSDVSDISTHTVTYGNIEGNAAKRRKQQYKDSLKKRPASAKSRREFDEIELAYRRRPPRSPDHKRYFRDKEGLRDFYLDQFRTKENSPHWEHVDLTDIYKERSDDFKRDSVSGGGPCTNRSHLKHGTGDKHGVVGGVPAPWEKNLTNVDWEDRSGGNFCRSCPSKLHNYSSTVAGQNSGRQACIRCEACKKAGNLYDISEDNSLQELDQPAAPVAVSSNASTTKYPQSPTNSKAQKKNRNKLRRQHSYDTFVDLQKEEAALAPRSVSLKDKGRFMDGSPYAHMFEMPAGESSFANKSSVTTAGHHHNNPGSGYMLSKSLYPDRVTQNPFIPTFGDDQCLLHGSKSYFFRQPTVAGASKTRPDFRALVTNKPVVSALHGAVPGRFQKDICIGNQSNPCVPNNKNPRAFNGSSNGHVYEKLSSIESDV

Which results are given for “TAT-EE3: membrane permeable disrupting peptide, sequence YGRKKRRQRRREEDTDSSEEMLALAEE (SEQ ID NO: 4)”?
enhanced surface expression of NMDARs in MCAO mice (NMDARs): abolished; pCREB level in MCAO brains vs sham control brains [1]: no reduction; pERK1/2 level in MCAO brains vs sham control brains [1]: no reduction
